The target in assay [1] is HIS-TGFβR2 WT (Homo sapiens, UniProt P37173). Briefly: HTRF probe-displacement assay with HIS-TGFβR2 WT. The assay is classed as binding. Particulars: 1 nM HIS-TGFβR2 WT, labeled probe at Kd, 1 hour at room temperature. Here is the method:
(§1) The reaction is incubated for 1 hour at room temperature and the HTRF signal was measured on an Envision plate reader (Ex: 340 nm; Em: 520 nm/495 nm). Inhibition data were calculated by comparison to no enzyme control reactions for 100% inhibition and vehicle-only reactions for 0% inhibition. The final concentration of reagents in the assay are 1 nM HIS-TGFβR1 T204D or HIS-TGFβR2 WT, 0.2 nM anti-HIS detection antibody, labeled small molecule probe (at Kd) and 0.5% DMSO. Dose response curves were generated to determine the concentration required inhibiting 50% of kinase activity (IC50). Compounds were dissolved at 10 mM in dimethylsulfoxide (DMSO) and evaluated at eleven concentrations. IC50 values were derived by non-linear regression analysis.
In general terms: In TR-FRET formats the signal depends on donor and acceptor labels being close together.

Assay [2] concerns the target T1, HIS-TGFβR1 T204D (Homo sapiens, UniProt P36897, T204D).
T1 sequence (P36897 34-503 T204D): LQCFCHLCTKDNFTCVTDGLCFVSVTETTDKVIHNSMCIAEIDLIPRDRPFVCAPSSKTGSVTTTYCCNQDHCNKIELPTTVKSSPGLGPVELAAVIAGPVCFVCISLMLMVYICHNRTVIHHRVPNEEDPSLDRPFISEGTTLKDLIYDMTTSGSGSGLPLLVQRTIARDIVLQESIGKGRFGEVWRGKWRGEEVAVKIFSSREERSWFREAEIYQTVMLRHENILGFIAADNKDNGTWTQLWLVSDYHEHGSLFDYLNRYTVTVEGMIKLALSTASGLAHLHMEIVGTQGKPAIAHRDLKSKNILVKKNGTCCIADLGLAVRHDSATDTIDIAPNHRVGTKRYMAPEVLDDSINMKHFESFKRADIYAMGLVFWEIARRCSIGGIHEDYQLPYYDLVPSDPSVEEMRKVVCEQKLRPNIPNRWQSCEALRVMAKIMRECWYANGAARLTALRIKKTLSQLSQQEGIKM
Briefly: HTRF probe-displacement assay with HIS-TGFβR1 T204D. The settings on record: 1 nM HIS-TGFβR1 T204D, labeled probe at Kd, 1 hour at room temperature. The assay is classed as binding. The procedure:
as §1

Structures can show the parent of a compound that is named as a salt.

Chain of HIS-TGFβR2 WT (P37173 23-567): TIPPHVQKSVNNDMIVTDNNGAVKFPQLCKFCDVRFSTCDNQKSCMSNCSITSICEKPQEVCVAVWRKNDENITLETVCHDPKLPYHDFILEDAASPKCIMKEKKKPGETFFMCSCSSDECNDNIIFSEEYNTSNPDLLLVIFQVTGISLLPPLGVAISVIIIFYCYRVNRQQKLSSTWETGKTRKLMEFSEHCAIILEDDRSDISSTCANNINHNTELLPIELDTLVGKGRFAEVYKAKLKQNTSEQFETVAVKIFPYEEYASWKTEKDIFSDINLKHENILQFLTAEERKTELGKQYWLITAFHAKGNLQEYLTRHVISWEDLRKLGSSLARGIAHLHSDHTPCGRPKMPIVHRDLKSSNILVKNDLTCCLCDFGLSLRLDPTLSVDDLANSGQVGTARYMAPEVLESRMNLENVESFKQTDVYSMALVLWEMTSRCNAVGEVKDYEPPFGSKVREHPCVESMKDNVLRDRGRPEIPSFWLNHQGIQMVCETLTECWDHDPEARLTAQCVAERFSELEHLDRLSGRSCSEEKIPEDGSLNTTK

As for `Cc1cccc(-c2nn(CC(F)F)cc2-c2ccc3ncc(C#N)n3c2)n1` [Example 27, 6-(1-(2,2-difluoroethyl)-3-(6-methylpyridin-2-yl)-1H-pyrazol-4-yl)imidazo[1,2-a]pyridine-3-carbonitrile], the values for the IC50 in assay [1] and in assay [2] were 11.4 µM and 0.003 µM, respectively.
Turning to `Fc1ccc(-c2n[nH]cc2-c2ccc3nccn3c2)cc1Cl` [Example 40, 6-(3-(3-chloro-4-fluorophenyl)-1H-pyrazol-4-yl)imidazo[1,2-a]pyridine, TFA], the IC50 was determined as 4.97 µM in assay [1] and 0.003 µM in assay [2].
As to `Cc1cccc(-c2c(-c3ccc4ncc(C#N)n4c3)cnn2C2CC2)n1` [Example 22, 6-(1-cyclopropyl-5-(6-methylpyridin-2-yl)-1H-pyrazol-4-yl)imidazo[1,2-a]pyridine-3-carbonitrile], the IC50 turned out to be 7.55 µM in assay [1] and 0.035 µM in assay [2].
Regarding `Fc1ccc(-c2n[nH]cc2-c2ccc3nncn3c2)cc1` [Example 31, 6-(3-(4-fluorophenyl)-1H-pyrazol-4-yl)-[1,2,4]triazolo[4,3-a]pyridine, TFA], the IC50 came out at 9.17 µM in assay [1] and 0.112 µM in assay [2].
On the same counts, the results for `CC(C)c1[nH]nc(-c2ccc(F)cc2)c1-c1ccc2ncc(C(N)=O)n2c1` [Example 68, 6-(3-(4-fluorophenyl)-5-isopropyl-1H-pyrazol-4-yl) imidazo [1,2-a]pyridine-3-carboxamide] are 0.176 µM and 0.001 µM.
The matching figures for `Cc1cc(-c2n[nH]c(C3CC3)c2-c2ccc3ncc(C#N)n3c2)ccc1F` [Example 99, 6-(5-cyclopropyl-3-(4-fluoro-3-methylphenyl)-1H-pyrazol-4-yl)imidazo[1,2-a]pyridine-3-carbonitrile]: 2.98 µM and 0.001 µM.
On to `N#Cc1cnc2ccc(-c3c[nH]nc3-c3ccc(F)cc3)nn12` [Example 13, 6-(3-(4-fluorophenyl)-1H-pyrazol-4-yl)imidazo [1,2-b]pyridazine-3-carbonitrile], for which the IC50 in assay [1] was found to be 0.101 µM; in assay [2], 0.007 µM.
`Cc1cccc(-c2nn(C)cc2-c2ccc3ncc(C#N)n3c2)n1` [Example 23, 6-(1-methyl-3-(6-methylpyridin-2-yl)-1H-pyrazol-4-yl)imidazo[1,2-a]pyridine-3-carbonitrile]: the concentration for half-maximal inhibition (IC50) in assay [1] was 2.48 µM; in assay [2] it was 0.001 µM.
On the same counts, the results for `NC(=O)c1cnc2ccc(-c3c[nH]nc3-c3ccc(F)c(Cl)c3)cn12` [Example 42, 6-(3-(3-chloro-4-fluorophenyl)-1H-pyrazol-4-yl)imidazo[1,2-a]pyridine-3-carboxamide, TFA] are 0.33 µM and 0.001 µM.
For the compound `Cc1cccc(-c2n[nH]c(C(C)C)c2-c2ccc3ncc(C#N)n3c2)n1` [Example 114, 6-(5-isopropyl-3-(6-methylpyridin-2-yl)-1H-pyrazol-4-yl) imidazo [1,2-a]pyridine-3-carbonitrile], the half-inhibitory concentration (IC50) in assay [1] came to 0.761 µM; in assay [2], 0.001 µM.
For the compound `Cc1cccc(-c2n[nH]c(C)c2-c2ccc3ncc(C(N)=O)n3c2)n1` [Example 64, 6-(5-methyl-3-(6-methylpyridin-2-yl)-1H-pyrazol-4-yl)imidazo[1,2-a]pyridine-3-carboxamide], the 50% inhibitory concentration (IC50) in assay [1] worked out at 0.012 µM; in assay [2] it was 0.001 µM.
As for `Cc1nc(-c2nn(C)cc2-c2ccc3ncc(C#N)n3c2)ccc1F` [Example 11, 6-(3-(5-fluoro-6-methylpyridin-2-yl)-1-methyl-1H-pyrazol-4-yl)imidazo[1,2-a]pyridine-3-carbonitrile], the half-inhibitory concentration (IC50) in assay [1] is 5.42 µM; in assay [2], 0.001 µM.
On the same counts, the results for `CC(C)c1[nH]nc(-c2ccc(F)cc2)c1-c1ccc2ncc(C#N)n2c1` [Example 67, 6-(3-(4-fluorophenyl)-5-isopropyl-1H-pyrazol-4-yl)imidazo[1,2-a]pyridine-3-carbonitrile] are 11.1 µM and 0.004 µM.
The matching figures for `N#CCn1cc(-c2ccc3ncc(C#N)n3c2)c(-c2ccc(F)c(Cl)c2)n1` [Example 43, 6-(3-(3-chloro-4-fluorophenyl)-1-(cyanomethyl)-1H-pyrazol-4-yl)imidazo[1,2-a]pyridine-3-carbonitrile]: 0.463 µM and 0.001 µM.
For the compound `Cc1cccc(-c2n[nH]c(C(C)C)c2-c2ccc3nccn3c2)n1` [Example 118, 6-(5-isopropyl-3-(6-methylpyridin-2-yl)-1H-pyrazol-4-yl)imidazo[1,2-a]pyridine], the results for the 50% inhibitory concentration (IC50) in assay [1] and in assay [2] were 2.69 µM and 0.001 µM, respectively.
Regarding `N#Cc1cnc2ccc(-c3c(-c4ccc(F)cc4)n[nH]c3C3CC3)cn12` [Example 84, 6-(5-cyclopropyl-3-(4-fluorophenyl)-1H-pyrazol-4-yl)imidazo[1,2-a]pyridine-3-carbonitrile], the IC50 in assay [1] stood at 2.68 µM; in assay [2], 0.003 µM.
On the same counts, the results for `Fc1ccc(-c2n[nH]cc2-c2ccc3ncc(F)n3c2)cc1` [Example 56, 3-fluoro-6-(3-(4-fluorophenyl)-1H-pyrazol-4-yl)imidazo[1,2-a]pyridine] are 0.533 µM and 0.007 µM.
For `CCc1[nH]nc(-c2cccc(C)n2)c1-c1ccc2ncc(C#N)n2c1` [Example 124, 6-(5-ethyl-3-(6-methylpyridin-2-yl)-1H-pyrazol-4-yl)imidazo[1,2-a]pyridine-3-carbonitrile], the 50% inhibitory concentration (IC50) came to 2.06 µM in assay [1] and 0.001 µM in assay [2].
The matching figures for `N#Cc1cnc2ccc(-c3c[nH]nc3-c3ccc(F)cc3)cn12` [Example 35, 6-(3-(4-fluorophenyl)-1H-pyrazol-4-yl)imidazo[1,2-a]pyridine-3-carbonitrile]: 0.221 µM and 0.011 µM.
On the same counts, the results for `Cc1cccc(-c2nn(C)cc2-c2ccc3ncc(C#N)n3n2)n1` [Example 25, 6-(1-methyl-3-(6-methylpyridin-2-yl)-1H-pyrazol-4-yl)imidazo[1,2-b]pyridazine-3-carbonitrile] are 9.74 µM and 0.003 µM.
As for `NC(=O)c1cnc2ccc(-c3c[nH]nc3-c3ccc(F)cc3)cn12` [Example 36, 6-(3-(4-fluorophenyl)-1H-pyrazol-4-yl)imidazo[1,2-a]pyridine-3-carboxamide], the 50% inhibitory concentration (IC50) in assay [1] was determined as 0.696 µM; in assay [2], 0.002 µM.
For the compound `Cc1cccc(-c2nn(C)cc2-c2ccc3ncc(C(N)=O)n3c2)n1` [Example 24, 6-(1-methyl-3-(6-methylpyridin-2-yl)-1H-pyrazol-4-yl)imidazo[1,2-a]pyridine-3-carboxamide], the half-maximal inhibitory concentration (IC50) came out at 0.627 µM in assay [1] and 0.001 µM in assay [2].
With `Cc1cccc(-c2n[nH]c(C(C)C)c2-c2ccc3ncc(C(N)=O)n3c2)n1` [Example 115, 6-(5-isopropyl-3-(6-methylpyridin-2-yl)-1H-pyrazol-4-yl)imidazo[1,2-a]pyridine-3-carboxamide], the 50% inhibitory concentration (IC50) in assay [1] came out at 0.009 µM; in assay [2], 0.001 µM.
In the case of `CC(C)(C)Nc1cnc2ccc(-c3c[nH]nc3-c3ccc(F)cc3)cn12` [Example 15, N-(tert-butyl)-6-(3-(4-fluorophenyl)-1H-pyrazol-4-yl)imidazo[1,2-a]pyridin-3-amine], the IC50 was 12.7 µM in assay [1] and 0.502 µM in assay [2].
For the compound `CC(=O)Nc1cc(-c2c[nH]nc2-c2ccc(F)cc2)cn2ccnc12` [Example 33, N-(6-(3-(4-fluorophenyl)-1H-pyrazol-4-yl)imidazo[1,2-a]pyridin-8-yl)acetamide], the IC50 in assay [1] amounted to 7.06 µM; in assay [2], 0.811 µM.
The matching figures for `Fc1ccc(-c2n[nH]c(C3CC3)c2-c2ccc3nccn3c2)cc1` [Example 86, 6-(5-cyclopropyl-3-(4-fluorophenyl)-1H-pyrazol-4-yl)imidazo [1,2-a]pyridine]: 14.6 µM and 0.004 µM.
For the compound `NC(=O)c1cnc2ccc(-c3c[nH]nc3-c3ccc(F)cc3)nn12` [Example 14, 6-(3-(4-fluorophenyl)-1H-pyrazol-4-yl)imidazo[1,2-b]pyridazine-3-carboxamide], the 50% inhibitory concentration (IC50) in assay [1] was determined as 0.885 µM; in assay [2] it was 0.004 µM.
The matching figures for `N#Cc1cnc2ccc(-c3c[nH]nc3-c3ccc(Cl)cc3)cn12` [Example 46, 6-(3-(4-chlorophenyl)-1H-pyrazol-4-yl)imidazo[1,2-a]pyridine-3-carbonitrile]: 0.214 µM and 0.092 µM.
On to `Cc1cc(-c2n[nH]c(C3CC3)c2-c2ccc3ncc(C(N)=O)n3c2)ccc1F` [Example 100, 6-(5-cyclopropyl-3-(4-fluoro-3-methylphenyl)-1H-pyrazol-4-yl)imidazo[1,2-a]pyridine-3-carboxamide], for which the IC50 in assay [1] was 0.094 µM; in assay [2], 0.001 µM.

The IC50 is the concentration needed to halve the response being measured.

These data come from patent publication US20190292179A1 (BRISTOL-MYERS SQUIBB COMPANY, priority 2016, published 2019).
